Test results: patent US12018023B2 (NERVIANO MEDICAL SCIENCES S.R.L., priority 2018, dated 2024)
Where a name gives a salt, the structure may show the parent alone.

How the values were obtained:
[1] = target: T1, IDH1^R132H homodimer enzyme (Homo sapiens, UniProt O75874, R132H); experiment: NADPH depletion assay, IDH1 R132H; assay type: biochemical
T1 construct: purchased not specified
Protocol: (§1) IDH mutated enzyme activity converting alpha-ketoglutarate to 2-hydroxyglutaric acid is measured using a NADPH depletion assay. In the assay the remaining cofactor is measured at the end of the reaction with the addition of a catalytic excess of diaphorase and resazurin, to generate a fluorescent signal in proportion to the amount of NADPH remaining. IDH1 WT enzyme as well as mutated isoforms IDH1^R132H, IDH1^R132C, and IDH^2R172K enzymes are commercially available proteins (see e.g. Sino Biological, Abcam, Active Motif or Creative BioMart).
(§2) IDH1^R132H homodimer enzyme are diluted to 8 nM, in 10 μL of Assay Buffer (150 mM NaCl, 50 mM Tris-HCl pH 7.6, 10 mM MgCl2, 0.001% Triton X-100, 4 mM β-mercaptoethanol); 0.2 uL of test compound, previously serially diluted 1 to 3, >10 experimental points from 1 mM in DMSO, is added and the mixture is incubated for 15 minutes at room temperature. The reaction is started with the addition of 10 μL of Substrate Mix (12 uM NADPH, 3.4 mM alpha-ketoglutarate in Assay Buffer) and the mixture is incubated for 60 minutes at room temperature. The reaction is terminated with the addition of 5 μl of Detection Buffer (100 μg/mL diaphorase, 30 μM resazurin, in IX Assay Buffer), and is incubated for 15 minute before reading on a ViewLux as platereader at Ex544/Em590.

IDH1^R132C = target: T2, IDH1^R132C (Homo sapiens, UniProt O75874, R132C); experiment: NADPH depletion assay, IDH1 R132C; assay type: biochemical
T2 construct: purchased not specified
Protocol: as §1, §2
Compounds are assayed for their activity against IDH1^R132C following the same assay as above with the following modifications: IDH1^R132C and alpha-ketoglutarate final concentrations in the Assay Buffer is 2 nM and 0.14 mM, respectively.

T1 sequence (O75874 whole entry R132H): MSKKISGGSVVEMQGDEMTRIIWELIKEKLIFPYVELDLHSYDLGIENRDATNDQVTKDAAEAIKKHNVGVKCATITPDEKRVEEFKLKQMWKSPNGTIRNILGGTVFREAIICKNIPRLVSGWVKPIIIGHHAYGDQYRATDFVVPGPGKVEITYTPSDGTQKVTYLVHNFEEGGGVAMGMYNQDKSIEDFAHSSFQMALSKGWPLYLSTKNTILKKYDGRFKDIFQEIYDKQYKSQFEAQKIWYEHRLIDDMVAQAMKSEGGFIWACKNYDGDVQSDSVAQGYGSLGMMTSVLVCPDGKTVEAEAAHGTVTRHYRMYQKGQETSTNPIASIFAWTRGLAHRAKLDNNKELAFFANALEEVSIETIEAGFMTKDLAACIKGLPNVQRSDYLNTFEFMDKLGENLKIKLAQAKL
T2 sequence (O75874 whole entry R132C): as the sequence (O75874 whole entry R132H) above, with H132C counted along it

Structure (SMILES) | IC50 [1] [µM] | IC50 (IDH1^R132C) [µM]
C[C@H](Nc1ncc2ccc(=O)n(CC(C)(C)C)c2n1)c1ccc(CN2CCCC2)cc1 [cpd 111, 8-(2,2-dimethylpropyl)-2-({(1S)-1-[4-(pyrrolidin-1-ylmethyl)phenyl]ethyl}amino)pyrido[2,3-d]pyrimidin-7(8H)-one] | 4.04 | 1.42
COCCn1c(=O)ccc2cnc(N[C@@H](C)c3ccc(CN4CCC(F)(F)CC4)cc3)nc21 [cpd 114, 2-{[(1S)-1-{4-[(4,4-difluoropiperidin-1-yl)methyl]phenyl}ethyl]amino}-8-(2-methoxyethyl)pyrido[2,3-d]pyrimidin-7(8H)-one] | 2.37 | 1.91
C[C@H](Nc1ncc2ccc(=O)n(Cc3ccc(F)cc3C(F)(F)F)c2n1)c1ccc(CN2CCC(F)(F)CC2)cc1 [cpd 115, 2-{[(1S)-1-{4-[(4,4-difluoropiperidin-1-yl)methyl]phenyl}ethyl]amino}-8-[4-fluoro-2-(trifluoromethyl)benzyl]pyrido[2,3-d]pyrimidin-7(8H)-one] | 0.672 | 0.825
Cc1nc(N[C@@H](C)c2ccc(CN3CCC(F)(F)CC3)cc2)nc2c1ccc(=O)n2CC(C)C [cpd 118] | 1.3 | 0.923
C[C@H](Nc1ncc2ccc(=O)n(CC(C)(C)O)c2n1)c1ccc(CN2CCC(F)(F)CC2)cc1 [cpd 119, 2-{(S)-1-[4-(4,4-Difluoro-piperidin-1-ylmethyl)-phenyl]-ethylamino}-8-(2-hydroxy-2-methyl-propyl)-8H-pyrido [2,3-d]pyrimidin-7-one] | 2.23 | 1.16
CCCC(C)(CO)Cn1c(=O)ccc2cnc(N[C@@H](C)c3ccc(CN4CCC(F)(F)CC4)cc3)nc21 (stereo partly drawn) [cpd 120, 2-{[(1S)-1-{4-[(4,4-difluoropiperidin-1-yl)methyl]phenyl}ethyl]amino}-8-[2-(hydroxymethyl)-2-methylpentyl]pyrido[2,3-d]pyrimidin-7(8H)-one] | 0.221 | 0.108
C[C@H](Nc1ncc2ccc(=O)n(CC(C)(C)C(N)=O)c2n1)c1ccc2ccccc2c1 [cpd 122, 2,2-dimethyl-3-[2-{[(1S)-1-(naphthalen-2-yl)ethyl]amino}-7-oxopyrido[2,3-d]pyrimidin-8(7H)-yl]propanamide] | 0.717 | 0.386
C[C@H](Nc1ncc2ccc(=O)n(CC(C)(C)C)c2n1)c1ccc(CN2CCNCC2)cc1 [cpd 138, 8-(2,2-Dimethyl-propyl)-2-[(S)-1-(4-piperazin-1-ylmethyl-phenyl)-ethylamino]-8H-pyrido[2,3-d]pyrimidin-7-one hydrochloride] | 2.26 | 0.777
CC(C)C(=O)N1CCN(Cc2ccc([C@H](C)Nc3ncc4ccc(=O)n(CC(C)(C)C)c4n3)cc2)CC1 [cpd 157, 8-(2,2-dimethylpropyl)-2-{[(1S)-1-(4-{[4-(2-methylpropanoyl)piperazin-1-yl]methyl}phenyl)ethyl]amino}-pyrido [2,3-d]pyrimidin-7(8H)-one] | 0.162 | 0.051
C[C@H](Nc1ncc2ccc(=O)n(CC(C)(C)C)c2n1)c1ccc(CN2CCN(C(=O)C3CC3)CC2)cc1 [cpd 158, 2-{[(1S)-1-(4-{[4-(cyclopropylcarbonyl)piperazin-1-yl]methyl}phenyl)ethyl]amino}-8-(2,2-dimethylpropyl) pyrido[2,3-d]pyrimidin-7(8H)-one] | 0.126 | 0.04
C[C@@H]1CN(Cc2ccc([C@H](C)Nc3ncc4ccc(=O)n([C@@H](C)C(F)(F)F)c4n3)cc2)C[C@H](C)O1 [cpd 164, 2-{[(1S)-1-(4-{[(2R,6S)-2,6-dimethylmorpholin-4-yl]methyl}phenyl)ethyl]amino}-8-[(2S)-1,1,1-trifluoropropan-2-yl]pyrido[2,3-d]pyrimidin-7(8H)-one] | 0.759 | 0.406

Further compounds by falling IC50 [1], results first:

IC50 [1] [µM] | IC50 (IDH1^R132C) [µM] | Structure (SMILES)
3.9 | 1.63 | C[C@H](Nc1ncc2ccc(=O)n(CC(C)(C)C(=O)O)c2n1)c1ccc2ccccc2c1 [cpd 121, 2,2-dimethyl-3-[2-{[(1S)-1-(naphthalen-2-yl)ethyl]amino}-7-oxopyrido[2,3-d]pyrimidin-8(7H)-yl]propanoic acid]
3.56 | 1.32 | C[C@H](Nc1ncc2ccc(=O)n(CC(C)(C)C)c2n1)c1ccc(O)cc1 [cpd 145, 8-(2,2-Dimethyl-propyl)-2-[(S)-1-(4-hydroxy-phenyl)-ethylamino]-8H-pyrido[2,3-d]pyrimidin-7-one]
3.47 | 1.3 | C[C@H](Nc1ncc2ccc(=O)n(CC(C)(C)C)c2n1)c1ccc(S(C)(=O)=O)cc1 [cpd 137, 8-(2,2-dimethylpropyl)-2-({(1S)-1-[4-(methylsulfonyl)phenyl]ethyl}amino)pyrido[2,3-d]pyrimidin-7(8H)-one]
0.575 | 0.144 | CC(C)[C@H](C)n1c(=O)ccc2cnc(N[C@@H](C)c3ccc(N4CCOCC4)cc3)nc21 [cpd 173, 8-[(2S)-3-methylbutan-2-yl]-2-({(1S)-1-[4-(morpholin-4-yl)phenyl]ethyl}amino)pyrido[2,3-d]pyrimidin-7(8H)-one]
0.473 | 0.173 | C[C@H](Nc1ncc2ccc(=O)n(CC(C)(C)C)c2n1)c1ccc(CN2CC(F)(F)C2)cc1 [cpd 147, 2-{[(1S)-1-{4-[(3,3-difluoroazetidin-1-yl)methyl]phenyl}ethyl]amino}-8-(2,2-dimethylpropyl)pyrido[2,3-d]pyrimidin-7(8H)-one]
0.455 | 0.147 | CC(C)[C@H](C)n1c(=O)ccc2cnc(N[C@@H](C)c3ccc(OC4CCNCC4)cc3)nc21 [cpd 155, 8-((S)-1,2-Dimethyl-propyl)-2-{(S)-1-[4-(piperidin-4-yloxy)-phenyl]-ethylamino}-8H-pyrido[2,3-d]pyrimidin-7-one]
0.284 | 0.17 | C[C@H](Nc1ncc2ccc(=O)n(CC(C)(C)C)c2n1)c1ccc(-c2ccncc2)cc1 [cpd 131, 8-(2,2-dimethylpropyl)-2-({(1S)-1-[4-(pyridin-4-yl)phenyl]ethyl}amino)pyrido[2,3-d]pyrimidin-7(8H)-one]
0.226 | 0.041 | C[C@H](Nc1ncc2ccc(=O)n(CC(C)(C)C)c2n1)c1ccc(CN2CCOCC2)cc1F [cpd 153, 8-(2,2-dimethylpropyl)-2-({(1S)-1-[2-fluoro-4-(morpholin-4-ylmethyl)phenyl]ethyl}amino)pyrido[2,3-d]-pyrimidin-7(8H)-one]
0.169 | 0.055 | C[C@@H]1CN(Cc2ccc([C@H](C)Nc3ncc4ccc(=O)n([C@@H](C)C5CC5)c4n3)cc2F)C[C@H](C)O1 [cpd 171, 8-[(1S)-1-cyclopropylethyl]-2-{[(1S)-1-(4-{[(2R,6S)-2,6-dimethylmorpholin-4-yl]methyl}-3-fluorophenyl)ethyl]amino}pyrido[2,3-d]pyrimidin-7(8H)-one]
0.068 | 0.031 | CC(C)C(=O)N1CCC(Oc2ccc([C@H](C)Nc3ncc4ccc(=O)n([C@@H](C)C(C)C)c4n3)cc2)CC1 [cpd 160, 8-((S)-1,2-Dimethyl-propyl)-2-{(S)-1-[4-(1-isobutyryl-piperidin-4-yloxy)-phenyl]-ethylamino}-8H-pyrido[2,3-d]pyrimidin-7-one]
